# Key:
# Parameters in all cases: species or system A/J mice
# 26-10 mAb = settings: free analogue 0.00035-200 μM inhibiting binding of mAb 26-10 to Oua-BGG
# Description: (§1) Competition ELISA was used first to determine the relative affinity of each mAb for Oua and Dig. The 96-well PVC plates were coated with 50 μl of 5 μg/ml Oua-BGG in PBSA. First we determined the Ab concentration which was not in excess of immobilized antigen. Using the direct binding assay described above, the concentration of Ab at which 50% binding was achieved was ascertained. Inhibition of binding of Abs to Oua-BGG was determined by adding 25 μl Ab (concentrations as determined above) and 25 μl of free Oua (0.001-200 μM, 2-fold dilutions). Percent inhibition is the ratio (OD450 in the presence of 1% BSA−OD450 in the presence of Oua)/(OD450 in the presence of 1% BSA)×100. The relative affinity (IC50) is the Oua concentration that inhibits 50% of the binding of Ab to Oua-BGG.
# (§2) Competition ELISA was used to determine the cross reactivity of the mAbs with different digitalis glycosides (Oua, Dig, gitoxin and digitoxin and their derivatives listed in Tables I and II) and with endogenous steroid hormones (cortisone, corticosterone and progesterone). In these assays binding of mAbs to Oua-BGG was determined in the presence or absence of various concentrations (0.00035-200 μM) of free digitalis glycosides and steroid hormones as described above.
# (§3) Inhibition assays were performed to identify clones that produce mAbs, the binding of which to Oua-BGG could be inhibited with free Oua at μM concentrations. Abs were titrated in direct binding assays to determine the concentration equivalent to 35-50% binding to Oua-BGG. Binding of Abs to Oua-BGG was determined in the presence or absence of 0.00035-200 μM of free Oua. Ab binding was detected using HRP-goat anti-mouse Ab. […] Percentage inhibition was calculated as described in Materials and Methods.
# 1-10 mAb = settings: free analogue 0.00035-200 μM inhibiting binding of mAb 1-10 to Oua-BGG
# Description: as §1, §2, §3
# 7-1 mAb = settings: free analogue 0.00035-200 μM inhibiting binding of mAb 7-1 to Oua-BGG
# Description: as §1, §2, §3
# 5A12 mAb = settings: free analogue 0.00035-200 μM inhibiting binding of mAb 5A12 to Oua-BGG
# Description: as §1
# as §2, with “above. […]” for “above.”
Structure (SMILES),IC50 (26-10 mAb),IC50 (1-10 mAb),IC50 (7-1 mAb),IC50 (5A12 mAb)
C[C@H]1O[C@@H](O[C@H]2CC[C@]3(C=O)[C@H]4CC[C@]5(C)[C@@H](C6=CC(=O)OC6)CC[C@]5(O)[C@@H]4CC[C@]3(O)C2)C[C@H](O)[C@@H]1O [Helveticoside],0.2 µM,150 µM,150 µM,150 µM
CC(=O)O[C@H]1C[C@]2(O)[C@@H]3CC[C@@H]4C[C@@H](O)CC[C@]4(C)[C@H]3CC[C@]2(C)[C@H]1C1=CC(=O)OC1 [Oleandrigenin],> 100 µM,> 100 µM,> 100 µM,> 100 µM
C[C@]12CCC(=O)C=C1CC[C@@H]1[C@@H]2C(=O)C[C@@]2(C)[C@H]1CC[C@]2(O)C(=O)CO [Cortisone],100 µM,> 100 µM,> 100 µM,> 100 µM
CC(=O)[C@H]1CC[C@H]2[C@@H]3CCC4=CC(=O)CC[C@]4(C)[C@H]3CC[C@]12C [Progesterone],2 µM,> 100 µM,> 100 µM,> 100 µM
C[C@H]1O[C@@H](O[C@H]2[C@@H](O)C[C@H](O[C@H]3[C@@H](O)C[C@H](O[C@H]4CC[C@@]5(C)[C@H](CC[C@@H]6[C@@H]5CC[C@]5(C)[C@@H](C7=CC(=O)OC7)CC[C@]65O)C4)O[C@@H]3C)O[C@@H]2C)C[C@H](O)[C@@H]1O [Digitoxin],0.02 µM,3 µM,3 µM,3 µM
C[C@]12CC[C@H](O)C[C@H]1CC[C@@H]1[C@@H]2CC[C@]2(C)[C@@H](C3=CC(=O)OC3)CC[C@]12O [Digitoxigenin],0.04 µM,4 µM,4 µM,4 µM
CO[C@H]1C[C@H](O[C@H]2CC[C@@]3(C)[C@H](CC[C@@H]4[C@@H]3CC[C@]3(C)[C@@H](C5=CC(=O)OC5)[C@@H](OC(C)=O)C[C@]43O)C2)O[C@@H](C)[C@@H]1O [Oleandrin],> 100 µM,> 100 µM,> 100 µM,> 100 µM
"CC(=O)O[C@H]1CC[C@@]2(C)[C@H](CC[C@@H]3[C@@H]2C[C@@H](OC(C)=O)[C@]2(C)[C@@H](C4=CC(=O)OC4)CC[C@]32O)C1 [Digoxigenin-3,12-diacetate]",6 µM,> 100 µM,> 100 µM,> 100 µM
C[C@]12C[C@H](O)[C@H]3[C@@H](CCC4=CC(=O)CC[C@@]43C)[C@@H]1CC[C@@H]2C(=O)CO [Corticosterone],> 100 µM,> 100 µM,> 100 µM,> 100 µM
CC(=O)O[C@H]1C[C@]2(O)[C@@H]3CC[C@@H]4C[C@@H](O[C@H]5C[C@H](O)[C@H](O[C@H]6C[C@H](O)[C@H](O[C@H]7C[C@H](O)[C@H](O)[C@@H](C)O7)[C@@H](C)O6)[C@@H](C)O5)CC[C@]4(C)[C@H]3CC[C@]2(C)[C@H]1C1=CC(=O)OC1 [16-acetylgitoxin],0.5 µM,> 100 µM,> 100 µM,> 100 µM
C[C@H]1O[C@@H](O[C@H]2[C@@H](O)C[C@H](O[C@H]3[C@@H](O)C[C@H](O[C@H]4CC[C@@]5(C)[C@H](CC[C@@H]6[C@@H]5C[C@@H](O)[C@]5(C)[C@@H](C7=CC(=O)OC7)CC[C@]65O)C4)O[C@@H]3C)O[C@@H]2C)C[C@H](O)[C@@H]1O [Digoxin],0.006 µM,> 100 µM,> 100 µM,> 100 µM
CC(=O)O[C@H]1CC[C@]2(C=O)[C@H]3CC[C@]4(C)[C@@H](C5=CC(=O)OC5)CC[C@]4(O)[C@@H]3CC[C@]2(O)C1 [Acetylstrophanthidin],0.2 µM,6 µM,6 µM,2 µM
CO[C@@H]1[C@H](O)[C@@H](O[C@@H]2C[C@H]3CC[C@@H]4[C@H](CC[C@]5(C)[C@@H](C6=CC(=O)OC6)CC[C@]45O)[C@@]3(C)[C@H](O)C2)O[C@@H](C)[C@@H]1O [Acovenoside],0.2 µM,8 µM,8 µM,5 µM
C[C@]12C[C@@H](O)[C@H]3[C@@H](CC[C@]4(O)C[C@@H](O)C[C@@H](O)[C@]34CO)[C@@]1(O)CC[C@@H]2C1=CC(=O)OC1 [Ouabagenin],0.4 µM,30 µM,30 µM,16 µM
C[C@]12CC[C@H]3[C@@H](CC[C@]4(O)C[C@@H](O)CC[C@]34C=O)[C@@]1(O)CC[C@@H]2C1=CC(=O)OC1 [Strophanthidin],0.2 µM,10 µM,10 µM,4 µM
C[C@@H]1O[C@@H](O[C@H]2C[C@@H](O)[C@]3(CO)[C@H]4[C@H](O)C[C@]5(C)[C@@H](C6=CC(=O)OC6)CC[C@]5(O)[C@@H]4CC[C@]3(O)C2)[C@H](O)[C@H](O)[C@H]1O [Ouabain],0.37 µM,25 µM,20 µM,10 µM
C[C@@H]1O[C@@H](O[C@H]2CC[C@]3(C=O)[C@H]4CC[C@]5(C)[C@@H](C6=CC(=O)OC6)CC[C@]5(O)[C@@H]4CC[C@]3(O)C2)[C@H](O)[C@H](O)[C@H]1O [Convallatoxin],0.1 µM,3 µM,3 µM,2 µM
C[C@H]1O[C@@H](O[C@H]2[C@@H](O)C[C@H](O[C@H]3[C@@H](O)C[C@H](O[C@H]4CC[C@@]5(C)[C@H](CC[C@@H]6[C@@H]5CC[C@]5(C)[C@@H](C7=CC(=O)OC7)[C@@H](O)C[C@]65O)C4)O[C@@H]3C)O[C@@H]2C)C[C@H](O)[C@@H]1O [Gitoxin],1.5 µM,> 100 µM,> 100 µM,100 µM
"CC(=O)OC1CCC2(C)C(CCC3C2CCC2(C)C(C4=CC(=O)OC4)C(OC(C)=O)CC32O)C1 (stereo not shown) [Gitoxigenin-3,16-diacetate]",> 100 µM,> 100 µM,> 100 µM,> 100 µM
